The text below walks through data of US5750724A, “Indolealkyl derivatives of benzodioxanmethylamine” (American Home Products Corporation, priority 1996, dated 1998).

Assay [1] addresses T1, 5-HT1A serotonin receptor (Rattus norvegicus, UniProt P19327).
T1 construct: following the procedure of Hall et al., J. Neurochem; 44, 1685 (1985); from tissue
T1 sequence (P19327 1-422): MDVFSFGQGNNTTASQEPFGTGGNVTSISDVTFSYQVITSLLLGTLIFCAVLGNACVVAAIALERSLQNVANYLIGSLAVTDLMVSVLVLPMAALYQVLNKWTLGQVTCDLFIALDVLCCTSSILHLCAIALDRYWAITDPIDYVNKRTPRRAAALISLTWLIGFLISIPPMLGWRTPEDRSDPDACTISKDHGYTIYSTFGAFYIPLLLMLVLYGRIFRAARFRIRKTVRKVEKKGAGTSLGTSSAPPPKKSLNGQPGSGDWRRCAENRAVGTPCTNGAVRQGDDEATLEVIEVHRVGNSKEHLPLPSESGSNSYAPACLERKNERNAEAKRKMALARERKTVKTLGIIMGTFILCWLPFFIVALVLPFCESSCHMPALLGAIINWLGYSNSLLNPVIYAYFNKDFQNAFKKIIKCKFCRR
Put plainly: displacement of [3H] 8-OHDPAT (dipropylaminotetralin) from the 5-HT1A serotonin receptor (Hall et al.). Type of assay: binding. As to conditions: read-out: 5-HT1A Receptor Affinity IC50. The text has this: High affinity for the serotonin 5-HT1A receptor was established by testing the claimed compound's ability to displace [^3 H] 8-OHDPAT (dipropylaminotetralin) from the ^5 -HT1A serotonin receptor following the procedure of Hall et al., J. Neurochem. 44, 1685 (1985). […] The anxiolytic and antidepressant activity of these agents are believed to be, at least partially, due to their 5-HT1A receptor affinity (Vander Maclen et al., Eur. J. Pharmacol. 1986, 129 (1-2) […] and Lucki, J. Clin. Psychiat. 1992, 52, 24-31).
(In general: Displacement assays read how much labelled ligand stays bound in the presence of the test substance.)

The target of the next assay is T2, dopamine D2 receptor (Rattus norvegicus, UniProt P61169).
T2 construct: homogenized rat striatal brain tissue; from tissue; host or cells: rat striatum homogenate
Put plainly: dopamine D2 receptor affinity, 3H-quinpirole, homogenized rat striatal brain tissue (modified Seemen and Schaus). The assay is classed as binding. As for the experimental part: Affinity for the dopamine D2 receptor was established by a modification of the standard experimental test procedure of Seemen and Schaus, European Journal of Pharmacology 203: 105-109, 1991, wherein homogenized rat striatal brain tissue is incubated with ^3 H-quinpirole and various concentrations of test compound, filtered and washed and counted in a Betaplate scintillation counter.

T2 sequence (P61169 whole entry): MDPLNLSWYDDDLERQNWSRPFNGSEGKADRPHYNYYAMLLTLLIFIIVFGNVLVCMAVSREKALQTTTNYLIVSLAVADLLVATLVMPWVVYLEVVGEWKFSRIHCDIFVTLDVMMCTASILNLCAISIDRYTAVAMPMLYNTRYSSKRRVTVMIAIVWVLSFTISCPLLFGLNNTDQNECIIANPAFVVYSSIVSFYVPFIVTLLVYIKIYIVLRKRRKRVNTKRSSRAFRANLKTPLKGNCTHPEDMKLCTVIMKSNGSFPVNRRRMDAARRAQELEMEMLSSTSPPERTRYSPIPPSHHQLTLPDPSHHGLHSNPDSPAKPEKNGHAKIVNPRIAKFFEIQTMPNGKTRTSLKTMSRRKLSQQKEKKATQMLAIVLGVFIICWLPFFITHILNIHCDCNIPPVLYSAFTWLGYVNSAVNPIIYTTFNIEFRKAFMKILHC

Take `COc1ccc2c(c1)O[C@@H](CNCCCCc1c[nH]c3ccccc13)CO2` [Example 2, [4-(1H-Indol-3-yl)-butyl]-(7-methoxy-2,3-dihydro-benzo[1,4]dioxin-2-ylmethyl)amine]: the IC50 (in general, the concentration needed to halve the response being measured) was determined as 5.7 nM in assay [1] and 82 nM at dopamine D2 receptor.

Take `Oc1ccc2c(c1)OC(CNCCCc1c[nH]c3ccccc13)CO2` (centres unmarked) [Example 15, 3-{[4-(1H-Indol-3-yl)-propylamino]-methyl}-2,3-dihydro-benzo[1,4]dioxin-6-ol]: the IC50 in assay [1] is 4.85 nM; at dopamine D2 receptor, 0.3 nM.

For the compound `Oc1ccc2c(c1)OC(CNCCCCc1c[nH]c3ccccc13)CO2` (centres unmarked) [Example 3, 3-{[4-(1H-Indol-3-yl)-butylamino}-methyl}-2,3-dihydro-benzo[1,4]dioxin-6-ol], the IC50 is 6 nM in assay [1] and 1.3 nM on dopamine D2 receptor.

Consider `COc1ccc2c(c1)OC(CN(C)CCCc1c[nH]c3ccc(OC)cc13)CO2` (centres unmarked) [Example 7, (7-Methoxy-2,3-dihydro-benzo[1,4]dioxin-2-ylmethyl)-[3-(5-methoxy-1H-indol-3-yl)-propyl]-methyl-amine], for which the IC50 stood at 6.74 nM in assay [1] and 1230 nM on dopamine D2 receptor.

For `Cn1cc(CCCNCC2COc3ccc(NS(C)(=O)=O)cc3O2)c2ccccc21` (centres unmarked) [Example 24, N-(3-{[3-(1-Methyl-1H-indol-3-yl)-propylamino]-methyl}-2,3-dihydrobenzo[1,4]dioxin-6-yl)-methanesulfonamide], the IC50 in assay [1] stood at 9.29 nM; at dopamine D2 receptor, 20.4 nM.

For `COc1ccc2[nH]cc(CCCCNCC3COc4ccc(NS(C)(=O)=O)cc4O3)c2c1` (centres unmarked) [Example 14, N-(3-{[4-(5-Methoxy-1 H-indol-3-yl)-butylamino]-methyl}-2,3-dihydrobenzo[1,4]dioxin-6-yl)-methanesulfonamide], the results for the IC50 (in assay [1]; at dopamine D2 receptor) were 0.81 nM and 4.75 nM, respectively.

Turning to `COc1ccc2[nH]cc(CCCCNCC3COc4ccc(O)cc4O3)c2c1` (centres unmarked) [Example 10, 3-{[4-(5-Methoxy-1H-indol-3-yl)-butylamino]methyl}-2,3-dihydrobenzo[1,4]dioxin-6-ol], the IC50 stood at 1.94 nM in assay [1] and 0.39 nM against dopamine D2 receptor.

On to `c1ccc2c(c1)OCC(CNCCCc1c[nH]c3ccccc13)O2` (centres unmarked) [Example 17, (2.3-Dihydro-benzo[1,4]dioxin-2-ylmethyl)-[3-(1H-indol-3-yl)-propyl]-amine], for which the IC50 was 3.77 nM in assay [1] and 3.5 nM at dopamine D2 receptor.

As to `CS(=O)(=O)Nc1ccc2c(c1)O[C@@H](CNCCCc1c[nH]c3ccccc13)CO2` [Example 21, N-(3-{[3-(1H-Indol-3-yl)-propylamino]methyl}-2,3-dihydro-benzo[1,4]dioxin-6-yl)-methanesulfonamide], the results for the IC50 (in assay [1]; against dopamine D2 receptor) were 5.8 nM and 0.76 nM, respectively.

Take `c1ccc(COc2ccc3[nH]cc(CCCNCC4COc5ccccc5O4)c3c2)cc1` (centres unmarked) [Example 4, [3-(5-Benzyloxy-1H-indol-3-yl)-propyl]-(2,3-dihydro-benzo[1,4]dioxin-2-ylmethyl)-amine]: the IC50 in assay [1] was 8.05 nM; against dopamine D2 receptor it was 102 nM.

`c1ccc2c(c1)OCC(CNCCCCc1c[nH]c3ccccc13)O2` (centres unmarked) [Example 16, (2,3-Dihydro-benzo[1,4]dioxin-2-ylmethyl)-[4-(1H-indol-3-yl)-butyl]-amine]: the IC50 in assay [1] amounted to 4.86 nM; against dopamine D2 receptor, 13.6 nM.

As for `COc1ccc2c(c1)OC(CNCCCCc1c[nH]c3ccc(F)cc13)CO2` (centres unmarked) [Example 19, [4-(5-Fluoro-1H-indole-3-yl)-butyl]-(7-methoxy-2,3-dihydro-benzo[1,4]dioxin-2-ylmethyl)-amine], the IC50 was 5.5 nM in assay [1] and 72 nM against dopamine D2 receptor.

As to `COc1ccc2c(c1)OC(CNCCCc1c[nH]c3ccc(O)cc13)CO2` (centres unmarked) [Example 6, 3-{3-[(7-Methoxy-2,3-dihydro-benzo[1,4]dioxin-2-ylmethyl)-amino]-propyl}-1H-indol-5-ol], the results for the IC50 (in assay [1]; against dopamine D2 receptor) were 2.7 nM and 45 nM, respectively.
